Laboratory results as given in US12472178B2, “Amorphous solid dispersions” (INTRA-CELLULAR THERAPIES, INC., priority 2016, dated 2025).

Columns and labels:
[1] = Preliminary screen of lyophilized dispersions by XRPD and appearance; type: physicochemical; details: ITI-007 free base dispersions, as generated
Protocol: X-ray powder diffraction (XRPD): The X-ray powder diffraction studies are performed using a PANalytical X′Pert PRO MPD diffractometer using an incident beam of Cu radiation produced using an Optix long, fine-focus source. An elliptically graded multilayer mirror is used to focus Cu Kα X-ray radiation through the specimen and onto the detector. Prior to analysis, a silicon specimen is analyzed to verify the observed position of the Si (111) peak (consistent with the NIST-certified position, NIST SM 640e). A specimen of the sample is sandwiched between 3-micron thick films and analyzed in transmission geometry. A beam-stop, short antiscatter extension, and antiscatter knife edge is used to minimize the background generated by the air. Soller slits for the incident and diffracted beams are used to minimize broadening from axial divergence. Diffraction patterns are collected using a scanning position-sensitive detector (X′Celerator) located 240 mm from the specimen. Data Collector software v. 2.2b is used for analysis.
Solutions are initially frozen in a dry ice/acetone bath, and then placed in a freeze dryer with the shelf pre-cooled to −75° C. […]
Solid dispersions obtained from Example 1 are first evaluated by XRPD to determine if they are amorphous. […]
The same excipients are evaluated as described in Example 1.

[2] = Stability of solutions in 2,2,2-trifluoroethanol; type: physicochemical; details: solutions in TFE
[3] = Glass transition temperature by mDSC; type: physicochemical; details: ITI-007 free base dispersions; Yes/No
[4] = free base form; cited from earlier work
muscarinic receptors = details: cited from earlier work
H1 histaminergic = H1 histaminergic (Homo sapiens, UniProt P35367); details: cited from earlier work
5-HT2C = target: T1, 5-HT2C (Homo sapiens, UniProt P28335); details: cited from earlier work
T1 sequence (P28335 33-458): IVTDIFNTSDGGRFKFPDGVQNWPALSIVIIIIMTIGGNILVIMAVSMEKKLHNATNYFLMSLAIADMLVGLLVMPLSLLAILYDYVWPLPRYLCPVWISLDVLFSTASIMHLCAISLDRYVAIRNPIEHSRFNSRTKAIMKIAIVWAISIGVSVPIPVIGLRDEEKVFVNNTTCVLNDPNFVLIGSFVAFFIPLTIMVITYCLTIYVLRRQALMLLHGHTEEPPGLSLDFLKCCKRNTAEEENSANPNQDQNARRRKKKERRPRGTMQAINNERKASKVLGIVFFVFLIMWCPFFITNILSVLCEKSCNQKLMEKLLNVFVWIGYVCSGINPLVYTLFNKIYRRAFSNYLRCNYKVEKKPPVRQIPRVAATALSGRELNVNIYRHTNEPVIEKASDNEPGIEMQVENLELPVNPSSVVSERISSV

[5] = amorphous form compared with the crystalline form; cited from earlier work

H1 histaminergic, sequence (P35367 whole entry): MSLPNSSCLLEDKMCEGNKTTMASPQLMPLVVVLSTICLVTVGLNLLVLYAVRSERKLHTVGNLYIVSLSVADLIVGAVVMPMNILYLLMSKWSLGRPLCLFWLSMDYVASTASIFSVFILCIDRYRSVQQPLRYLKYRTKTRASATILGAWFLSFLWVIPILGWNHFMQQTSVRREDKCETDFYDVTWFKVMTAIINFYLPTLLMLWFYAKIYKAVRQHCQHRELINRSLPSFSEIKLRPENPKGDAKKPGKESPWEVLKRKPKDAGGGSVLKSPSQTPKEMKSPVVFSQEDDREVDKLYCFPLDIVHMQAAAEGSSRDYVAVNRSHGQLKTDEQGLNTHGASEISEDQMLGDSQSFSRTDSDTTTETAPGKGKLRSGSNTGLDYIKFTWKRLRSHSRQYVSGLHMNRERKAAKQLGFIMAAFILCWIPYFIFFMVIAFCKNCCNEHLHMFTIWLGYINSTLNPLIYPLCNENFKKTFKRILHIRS

X-ray Amorphous Solids? [1]	Tg > 75° C. [3]	Structure (SMILES)	stability of solution [2]	solubility in water [4]	binding (muscarinic receptors)	binding (H1 histaminergic)	binding (5-HT2C)	bioavailability [5]
No	No	CN1CCN2c3c(cccc31)[C@@H]1CN(CCCC(=O)c3ccc(F)cc3)CC[C@@H]12 [ITI-007, 1-(4-fluoro-phenyl)-4-((6bR,10aS)-3-methyl-2,3,6b,9,10,10a-hexahydro-1H,7H-pyrido[3′,4′:4,5]pyrrolo[1,2,3-de]quinoxalin-8-yl)-butan-1-one]	rapidly discolor due to decomposition of the active	poor solubility	negligible binding	negligible binding	negligible binding	–
–	–	CO/N=C(\C(=O)N[C@@H]1C(=O)N2C(C(=O)OC(C)OC(C)=O)=C(COC(N)=O)CS[C@H]12)c1ccco1 (some centres unmarked) [Cefuroxime axetil]	–	–	–	–	–	higher bioavailability
